# Test results from PubChem BioAssay (NCI).
#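 Cultured in 96-well plates, cells were exposed to test compound for 48 hours across five concentrations. TGI marks complete inhibition of growth.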
# Experiments:
# Experiment in all cases: DTP human tumour cell line panel, 48 h
# [1] = test system: KM12 colon
# [2] = test system: U251 CNS
# [3] = test system: HL-60(TB) leukemia
# [4] = test system: T-47D breast
# [5] = test system: K-562 leukemia
# [6] = test system: MDA-MB-231 breast
# [7] = test system: SF-295 CNS
# [8] = test system: DU-145 prostate
# [9] = test system: SK-MEL-5 melanoma
# [10] = test system: KM20L2 colon
# [11] = test system: LXFL 529 NSCLC
SMILES,TGI [1] [µM],TGI [2] [µM],TGI [3] [µM],TGI [4] [µM],TGI [5] [µM],TGI [6] [µM],TGI [7] [µM],TGI [8] [µM],TGI [9] [µM],TGI [10] [µM],TGI [11] [µM]
Nc1ccc(-c2nc3ccccc3s2)cc1C(F)(F)F,31.2,28.7,36.9,20.6,46.6,26.3,32.1,29.2,30.6,,
CSC(=Nc1ccccc1)N(c1ccccc1)c1nc(=[N+](C)C)ss1,13.7,17.2,3.2,,2.89,,25.1,,5.15,13.7,
CC(C(=O)N1C(=O)N(C(=O)C(C)C(O)c2ccccc2)C2CCCCC21)C(O)c1ccccc1 (stereo not given),> 100,> 100,70,,,,> 100,,> 100,> 100,> 100
COC(=O)CCc1cc(OC)c2c(c1)[C@H](C(=O)OC)[C@@H](c1ccc(O)c(OC)c1)O2,> 100,> 100,36,> 100,50.4,> 100,> 100,> 100,> 100,,
COC(=O)c1cc2c(cc1CC1Cc3cc4c(cc3C1)CCC4)CCC2,> 100,> 100,32.7,> 100,> 100,> 100,> 100,> 100,> 100,,
O=c1ccn(C2OC(CO)C(P(=O)(O)O)C2O)c(=O)[nH]1 (stereo not given),> 100,> 100,> 100,> 100,> 100,> 100,> 100,> 100,> 100,,
O=C1NCCS(=O)(=O)N[C@@H](CC2=CC=CCC2)C(=O)N2CCCC12 (stereo not given in full),> 100,> 100,> 100,,> 100,,> 100,,> 100,> 100,> 100
NNC1=N/C(=C\c2ccco2)C(Cl)=N1,> 100,> 100,51.4,> 100,42,> 100,> 100,> 100,> 100,,
CCN1CCCC(NCc2c3ccccc3c(CNC3CCCN(CC)C3)c3ccccc23)C1 (stereo not given),31.9,45.3,22.7,,42.6,,14.7,,27.4,20.9,
Cn1ccnc1C(O)(c1nccn1C)c1nccn1C,> 100,> 100,> 100,,,,> 100,,> 100,,> 100
COC(=O)c1c2c(cc3c1CCC3)CCC2,> 100,> 100,38.4,43.9,> 100,> 100,> 100,> 100,29.5,,
Nc1nc(N)c(N=O)c(Nc2ccc(Br)cc2)n1,> 100,59,> 100,,> 100,,> 100,,,95.7,> 100
CC(=O)O[C@H]1C(=O)[C@@]2(C)[C@H]([C@H](OC(=O)c3ccc(F)cc3)[C@]3(O)C[C@H](OC(=O)[C@H](O)[C@@H](NC(=O)c4ccccc4)c4ccccc4)C(C)=C1C3(C)C)[C@]1(OC(C)=O)CO[C@@H]1C[C@@H]2O,> 25,0.738,0.0149,> 9.63,0.172,> 25,> 6.59,2.31,> 9.33,,
